Columns and labels:
[1] = test system: uterine weight of non-pregnant guinea pigs; test: Uterine weights of guinea pigs; assay type: in vivo; conditions: 10 mg s.c. from day 10 of cycle; sacrifice day 18; untreated guinea pig 1.2 g; higher than 1.2 g indicates pure progesterone antagonistic activity
Procedure: 3 Non-pregnant guinea pigs in the luteal phase of the cycle will be treated with 10 mg of the compound subcutaneously beginning on day 10 of the cycle. Animals were sacrificed on day 18 after the start of the treatment and the uterine weights were obtained at the time of sacrifice. Comparisons will be made to onapristone-treated animals at 10 mg/animal/day s.c

[2] = molecular target: T1, progesterone receptor-LBD-UAS-bla HEK 293T cells (Homo sapiens, UniProt P06401); test: Progesterone Antagonist Screen (GeneBLAzer Beta-lactamase reporter, activated by control agonist R5020); assay type: cell-based; conditions: values relative to RU486, which is 100%; HEK 293T reporter cells, agonist R5020 at EC80
T1 construct: host or cells: HEK 293T
T1 sequence (P06401 679-913 limits assumed): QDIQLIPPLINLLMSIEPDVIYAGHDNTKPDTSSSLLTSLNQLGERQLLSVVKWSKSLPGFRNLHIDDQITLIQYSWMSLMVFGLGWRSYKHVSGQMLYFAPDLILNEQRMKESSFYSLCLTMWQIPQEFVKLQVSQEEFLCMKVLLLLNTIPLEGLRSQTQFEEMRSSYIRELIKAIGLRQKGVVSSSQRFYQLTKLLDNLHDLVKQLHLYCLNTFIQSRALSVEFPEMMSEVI
Procedure: Determination of the agonist/antagonist nature of the test compounds was carried out using Invitrogen's SelectScreen™ Cell-based nuclear receptor profiling service which uses the GeneBLAzer® Beta-lactamase reporter technology. Basically this assay uses a Beta-lactamase cDNA under transcriptional control of an Upstream Activator Sequence (UAS). The UAS is activated by the GAL4 transcription factor DNA binding domain (DBD), which is expressed as a fusion protein with the target receptor ligand binding domain (LBD). Upon ligand binding, the GAL4(DBD)-NR(LDB) binds to the UAS, which controls transcription of Beta-lactamase. Beta-lactamase cleaves a special engineered fluorescent substrate which results in a change in the measured fluorescence wavelength.
The generalized protocol used for the Progesterone Antagonist Screen, activated by control Agonist R5020 is as follows:
The progesterone receptor-LBD-UAS-bla HEK 293T cells are thawed and prepared as described above for the Agonist screen. 4 μL of a 10× serial dilution of control antagonist RU-486 (starting concentration, 100 nM) or test compounds are added to appropriate wells of a TC-Treated assay plate. 32 μL of cell suspension is added to the wells which is then pre-incubated at 37° C./5% CO2 in a humidified incubator with test compounds and control antagonist titration for 30 minutes. 4 μL of a 10× control agonist (see above) at the predetermined EC80 concentration is added to wells containing the control antagonist or test compounds. The plate is incubated for 16-24 hours at 37° C./5% CO2 in a humidified incubator. 8 μL of 1 μM Substrate Loading Solution is added to each well and the plate is incubated for 2 hours at room temperature. The plate is then read on a fluorescence plate reader (Tecan Safire).

[3] = test system: nidation (implantation) sites in pregnant rats; test: Antinidation test in rat; assay type: in vivo, rats (Sprague-Daley); conditions: rats with implantation sites / rats treated; 3 mg/day s.c. from day 5 of pregnancy, counted at day 9; 0/3 = full progesterone antagonist
Procedure: For every compound to be screened in rats (Sprague-Daley) 3 control rats (vehicle treated, s.c.), 3 rats treated (s.c.) with a known progestin antagonist and 3 rats treated (s.c.) with the test compound (3 mg/day) are used. Female rats will be placed with male rats for 3 to 4 days and exam the vagina for sperm plugs every morning. The presence of a sperm plug will indicate day 1 of pregnancy. Pregnant rats will be treated daily with 3 mg of the screened compound at beginning on day 5 of pregnancy. At day 9 of gestation the rats will be euthanized and nidation sites counted.

[4] = test system: human breast cancer cell line T47D; test: In vitro antiproliferative activity in human breast cancer cell line T47D (MTT); assay type: cell-based; conditions: 168 h, T47D cells, 7 days after cell seeding
Procedure: Cells from frozen stock were expanded in T75 cell culture flasks. For the experiment, cells in the logarithmic growth phase (70% confluent) were cultivated for 3 day without estradiol and then washed with PBS, detached by trypsination and suspended in 5 ml of fresh RPMI-1640 medium. Cells were centrifuged for 5 min at 1000 rpm and the pellet was resuspended in RPMI-1640 medium.
Cells were seeded in 96-well plates with a density of 5000 cells/well/in 0.18 mL RPMI-1640 medium. Cells were allowed to attach for 24 h. Visual control for viability at 24 h and cell culture medium change. At this time point, compounds were added in 20 μl to the final concentration. After 3 days medium and compounds where changed again. Finally, 7 days after cell seeding, 20 μl MTT-solution was added to each well and 4 h later the formed tetrazolium salt was measured with a photometer.

[5] = test system: progesterone receptor positive breast cancer; conditions: rat model of PR positive breast cancer; cited from earlier work

| SMILES | Uterine Weights of Guinea Pigs Treated with antiprogestins (grams) [1] | Emax [2] | Implantation Sites [3] | IC50 [4] | development of new tumors [5] | tumor size [5] |
| --- | --- | --- | --- | --- | --- | --- |
| C[C@]12C[C@H](c3ccc(C(=O)C4CC4)cc3)C3=C4CCC(=O)C=C4CCC3C1CC[C@@]2(O)/C=C\CO (stereo partly drawn) [Compound 2d, 11β-(4′-[Cyclopropylcarbonyl]phenyl)-17β-hydroxy-17-(3-hydroxyprop-1(Z)-enyl)-estra-4,9-diene-3-one] | 0.99 grams | 6% | – | – | – | – |
| CC(=O)c1ccc([C@H]2C[C@@]3(C)[C@@H](CC[C@@]3(O)C#CC(F)(F)F)[C@@H]3CCC4=CC(=O)CCC4=C32)cc1 [Compound 1a, 11β-(4′-Acetylphenyl)-17β-hydroxy-17-(3,3,3-trifluoro-1-propynyl)-estra-4,9-diene-3-one] | 1.3 grams | 6% | 1/3 | 17 nM | – | – |
| CN(C)c1ccc([C@H]2C[C@]3(C)[C@@H](CC[C@]3(O)CCCO)[C@@H]3CCC4=CC(=O)CCC4=C32)cc1 [ZK98299, reference compound] | 1.07 grams | – | 2/3 | – | – | – |
| COCC(=O)[C@@]1(OC(C)=O)CC[C@H]2[C@@H]3CCC4=CC(=O)CCC4=C3[C@@H](c3ccc(N(C)C)cc3)C[C@@]21C [CDB-4124, Proellex, reference compound] | 1.41 grams | – | 0/3 | – | decrease in the development of new tumors | regression of tumor size |
| CCC(F)(F)[C@]1(O)CC[C@H]2[C@@H]3CCC4=CC(=O)CCC4=C3[C@@H](c3ccc(C(C)=O)cc3)C[C@@]21C [Compound 1e, 11β-(4′-Acetyl-phenyl)-17β-hydroxy-17-(1,1-difluoropropyl)-estra-4,9-diene-3-one] | – | 191% | – | 0.3 nM | – | – |
| C=C1CCO[C@]12CCC1C3CCC4=CC(=O)CCC4=C3[C@@H](c3ccc(C(=O)C4CC4)cc3)C[C@@]12C (stereo partly drawn) [Compound 2e, 11β-(4′-[Cyclopropylcarbonyl]phenyl)-17,23-epoxy-19,24-dinor-17α-chola-4,9,20-triene-3-one] | 1.02 grams | 48% | – | 0.37 nM | – | – |
| C[C@]12C[C@H](c3ccc(C(=O)C4CC4)cc3)C3=C4CCC(=O)C=C4CC[C@H]3[C@@H]1CC[C@@]2(O)C(F)(F)C(F)(F)F [Compound 2a, 11β-(4′-[Cyclopropylcarbonyl]phenyl)-17β-hydroxy-17-(1,1,2,2,2-pentafluoroethyl)-estra-4,9-diene-3-one] | 2.3 grams | 91% | 0/3 | 1.2 nM | – | – |
| C[C@]12C[C@H](c3ccc(C(=O)C4CC4)cc3)C3=C4CCC(=O)C=C4CC[C@H]3[C@@H]1CC[C@@]2(O)CCCO [Compound 2c, 11β-(4′-[Cyclopropylcarbonyl]phenyl)-17β-hydroxy-17-(3-hydroxypropyl)-estra-4,9-diene-3-one] | 1.35 grams | 2% | – | 4.6 nM | – | – |
| CC(=O)c1ccc([C@H]2C[C@@]3(C)C(CC[C@@]3(O)/C=C/C(F)(F)F)C3CCC4=CC(=O)CCC4=C32)cc1 (stereo partly drawn) [Compound 1b, 11β-(4′-Acetylphenyl)-17β-hydroxy-17-(3,3,3-trifluoroprop-1(E)-enyl)-estra-4,9-diene-3-one] | 0.785 grams | 33% | 0/3 | 0.64 nM | – | – |
| C=CC(F)(F)[C@]1(O)CC[C@H]2[C@@H]3CCC4=CC(=O)CCC4=C3[C@@H](c3ccc(-c4cccnc4)cc3)C[C@@]21C [Compound 3b, 11β-(4′-[3-Pyridinyl]phenyl)-17β-hydroxy-17-(1,1-difluoroprop-2-enyl)-estra-4,9-diene-3-one] | – | 200% | 0/4 | – | – | – |
| CC#C[C@]1(O)CC[C@H]2[C@@H]3CCC4=CC(=O)CCC4=C3[C@@H](c3ccc(C(=O)c4ccc(C#N)cc4)cc3)C[C@@]21C [Compound 4, 11β-(4′-[4-Cyanobenzoyl]phenyl)-17β-hydroxy-17-(1-propynyl)-estra-4,9-diene-3-one] | – | 38% | – | – | – | – |
| C[C@]12C[C@H](c3ccc(-c4cccnc4)cc3)C3=C4CCC(=O)C=C4CCC3C1CC[C@@]2(O)/C=C/C(F)(F)F (stereo partly drawn) [Compound 3a, 11β-(4′-[3-Pyridinyl]phenyl)-17β-hydroxy-17-(3,3,3-trifluoroprop-1(E)-enyl)-estra-4,9-diene-3-one] | 0.87 grams | 190% | 0/4 | – | – | – |
| C=CC(F)(F)[C@]1(O)CC[C@H]2[C@@H]3CCC4=CC(=O)CCC4=C3[C@@H](c3ccc(C(C)=O)cc3)C[C@@]21C [Compound 1d, 11β-(4′-Acetylphenyl)-17β-hydroxy-17-(1,1-difluoroprop-2-enyl)-estra-4,9-diene-3-one] | – | 119% | – | 0.3 nM | – | – |
| CC#C[C@]1(O)CC[C@H]2[C@@H]3CCC4=CC(=O)CCC4=C3[C@@H](c3ccc(C(=O)C4CC4)cc3)C[C@@]21C [Compound 2b, 11β-(4′-[Cyclopropylcarbonyl]phenyl)-17β-hydroxy-17-(1-propynyl)-estra-4,9-diene-3-one] | – | 45% | – | 0.64 nM | – | – |
| CC(=O)c1ccc([C@H]2C[C@@]3(C)[C@@H](CC[C@@]3(O)CC(F)=C(F)F)[C@@H]3CCC4=CC(=O)CCC4=C32)cc1 [Compound 1c, 11β-(4′-Acetylphenyl)-17β-hydroxy-17-(2,3,3-trifluoroprop-2-enyl)-estra-4,9-diene-3-one] | 1.8 grams | 21% | 0/3 | 3.1 nM | – | – |

Reference: patent publication US20180155386A1, “PROGESTERONE ANTAGONISTS” (Evestra, Inc., priority 2011, published 2018)
